No end group written: not given here.
Tested on: PAR-C10 cells
Experiment: Trans-epithelial electrical resistance (TEER) assay of tight junction integrity in PAR-C10 monolayers treated with IFNγ and TNFα
Assay type: cell-based, rat
Settings: for prevention of cytokine-induced drop in TEER: co-incubation with IFNγ and TNFα, larazotide acetate 1 mM and 5 mM, other compounds 5 mM and 10 mM, FIG. 1-3
Text: Specifically, an in vitro assay system to measure tight junction integrity was established using PAR-C10 cells, an immortalized rat acinar epithelial cell line, which mimic the biochemical and functional characteristics of primary salivary gland acinar cells. PAR-C10 cells form a monolayer of cuboidal cells, and are attached to each other with well-formed junctional complexes. PAR-C10 cells have been used to model the effect of inflammatory cytokines on tight junctions in vitro. Quissell et al., (1998) In Vitro Cell. Dev. Biol. Anim. 34: 58-67; Baker et al., Am. J. Cell Physiol. 295:C1191-1201. The cells were seeded on permeable supports in 12 well plates and cultured to form monolayers. The trans-epithelial electrical resistance (TEER) across the epithelial monolayer was measured to evaluate formation of tight junction between the cells. Three ng/ml of each pro-inflammatory cytokines, interferon gamma (IFNγ) and tumor necrosis factor alpha (TNFα) were added to the monolayers and incubated for 24 hours in order to cause tight junction disruption. Larazotide acetate (1 mM and 5 mM) or any one of 4-Aminosalicylic acid (4-ASA), 4-Amino-phenyl-acetic acid (4-APAA), and 4-Acetyl amino-phenyl-acetic acid (4-Ac APAA) (5 or 10 mM) of was added to the apical surface and the cells allowed to grow for an additional 24 hours. The compounds were dissolved in dimethyl sulfoxide and added to the culture media to obtain a final concentration of 5 mM and 10 mM each.
TEER measurements were used to determine the effect of larazotide acetate (1 or 5 mM) and other anti-inflammatory compounds (4-Aminosalicylic acid (4-ASA), 4-Amino-phenyl-acetic acid (4-APAA), and 4-Acetyl amino-phenyl-acetic acid (4-Ac APAA)) (5 or 10 mM) on tight junctions, in the presence of cytokines. To determine a therapeutic effect, the cells were pre-treated with cytokines, and the ability of larazotide acetate (1 or 5 mM) or 4-ASA, 4-APAA, and 4-Ac APAA (each at 5 or 10 mM) to reverse junctional disruption was evaluated. Wells not treated with cytokines were used as controls. p values were determined by Kruskal Wallis tests, and adjusted p values were determined by Dunns post test.

Row | Molecule | prevention of cytokine-induced drop in TEER | prevention of cytokine induced disruption of tight junctions (TEER) (5 mM concentration, 2 independent experiments, FIG. 2) | reversal of cytokine-mediated drop in TEER (monolayers incubated with IFNγ and TNFα for 24 hours, then larazotide acetate (1 mM and 5 mM) on apical surface for additional 24 hours, FIG. 4)
1 | CC(=O)Nc1ccc(CC(=O)O)cc1 [4-Acetyl amino-phenyl-acetic acid, (4-acetylaminophenyl)-acetic acid, reference compound] | significantly prevent a drop in TEER |  | 
2 | Nc1ccc(CC(=O)O)cc1 [4-Amino-phenyl-acetic acid, 4-aminophenylacetic acid] | significantly prevent a drop in TEER |  | 
3 | Nc1ccc(C(=O)O)c(O)c1 [4-Aminosalicylic acid, reference compound] | significantly prevent a drop in TEER |  | 
4 | GGVLVQPG [larazotide acetate] | significantly prevent a drop in TEER | can reproducibly prevent cytokine induced disruption of tight junctions | able to reverse the cytokine-mediated drop in TEER
